This passage reports IC50 results from patent EP4049726A1, “IMIDAZO[1,2-A]PYRAZINES AS INHIBITORS OF HASPIN AND THERAPEUTIC USES THEREOF” (Fundación del Sector Público Estatal Centro Nacional de …, priority 2021, dated 2022).

The target of the assay is T1, HASPIN (Homo sapiens, UniProt Q8TF76).
T1 sequence (Q8TF76 1-798): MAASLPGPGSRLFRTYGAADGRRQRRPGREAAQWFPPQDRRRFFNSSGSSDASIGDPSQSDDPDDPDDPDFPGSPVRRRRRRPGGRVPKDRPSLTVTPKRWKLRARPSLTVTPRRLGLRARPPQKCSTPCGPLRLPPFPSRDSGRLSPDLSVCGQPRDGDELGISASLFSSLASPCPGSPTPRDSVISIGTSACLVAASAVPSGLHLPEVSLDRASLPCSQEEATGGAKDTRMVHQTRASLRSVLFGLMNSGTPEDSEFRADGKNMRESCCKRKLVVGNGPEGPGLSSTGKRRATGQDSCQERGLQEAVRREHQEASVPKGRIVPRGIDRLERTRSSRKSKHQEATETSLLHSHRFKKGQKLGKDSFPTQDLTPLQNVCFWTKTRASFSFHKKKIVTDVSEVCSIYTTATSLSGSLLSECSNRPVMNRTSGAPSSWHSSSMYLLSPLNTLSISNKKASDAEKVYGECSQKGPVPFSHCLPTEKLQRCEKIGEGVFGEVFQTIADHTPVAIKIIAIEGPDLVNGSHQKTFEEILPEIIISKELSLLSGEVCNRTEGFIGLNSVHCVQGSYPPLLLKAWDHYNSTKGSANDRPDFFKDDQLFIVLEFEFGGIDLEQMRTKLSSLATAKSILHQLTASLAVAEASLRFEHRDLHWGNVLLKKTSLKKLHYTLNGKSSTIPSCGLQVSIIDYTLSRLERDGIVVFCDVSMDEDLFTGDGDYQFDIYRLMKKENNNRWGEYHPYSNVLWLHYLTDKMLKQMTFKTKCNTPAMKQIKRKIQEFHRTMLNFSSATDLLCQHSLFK
In words: HASPIN biochemical assay (ADP-Glo, HASPIN autophosphorylation). The note with it: ATP 150 µM, 60 min at 30 °C. How it is done:
HASPIN biochemical Assay: The biochemical assay to measure HASPIN activity relies on the ADP-Glo™ assay kit (Promega) that determines the amount of ADP as direct product of the kinase enzyme activity. Assay conditions were as indicated by the kit manufacturers with the following adaptations for the kinase activity step: Kinase assay buffer and assay volume (15 mM HEPES pH 7.5, 20 mM NaCl, 1 mM EGTA, 0.02% TWEEN 20, 10 mM MgCl2, 0.1 mg/mL BGG)/25 µL assay volume). Incubation time and temperature: 60 min at 30 °C. HASPIN final concentration: 0.9 µg/mL. ATP final concentration: 150 µM. HASPIN autophosphorylation was measured. Assays were performed in 384-well plates. The final outcome of the coupled reactions provided by the kit is the release of […] and has been measured with a multilabel HTS counter Victor V / Envision. Values were normalized against the control activity included (100% HASPIN activity, without compound). Values were plotted against the inhibitor concentration and fit to a sigmoid dose-response curve using Activity base by IDBS software.
(ADP-Glo turns the ADP formed in a reaction into a luminescent signal.)
`NC(=O)c1cn2cc(-c3ccncc3)nc(NCC3CCNCC3)c2n1` [Compound 2, 8-[(Piperidin-4-ylmethyl)-amino]-6-pyridin-4-yl-imidazo[1,2-a]pyrazine-2-carboxylic acid amide] came in with an IC50 of 30 nM.

Regarding `COCCNC(=O)c1cn2cc(-c3ccncc3)nc(NCC3CCNCC3)c2n1` [Compound 5, 8-[(Piperidin-4-ylmethyl)-amino]-6-pyridin-4-yl-imidazo[1,2-a]pyrazine-2-carboxylic acid (2-methoxy-ethyl)-amide], the IC50 worked out at 229 nM.

Take `N#CC1(CNc2nc(-c3ccnc(Cl)c3)cn3cc(C(N)=O)nc23)CCNCC1` [Compound 6, 6-(2-Chloro-pyridin-4-yl)-8-[(4-cyano-piperidin-4-ylmethyl)-amino]-imidazo[1,2-a]pyrazine-2-carboxylic acid amide]: the IC50 was 59.6 nM.

As for `CNC(=O)c1nc2c(NCC3CCNCC3)nc(-c3ccncc3)cn2c1C` [Compound 7, 3-Methyl-8-[(piperidin-4-ylmethyl)-amino]-6-pyridin-4-yl-imidazo[1,2-a]pyrazine-2-carboxylic acid methylamide], the IC50 was 60 nM.

For the molecule `Cc1c(C(N)=O)nc2c(NCC3CCNCC3)nc(-c3ccncc3)cn12` [Compound 9, 3-Methyl-8-[(piperidin-4-ylmethyl)-amino]-6-pyridin-4-yl-imidazo[1,2-a]pyrazine-2-carboxylic acid amide], the IC50 turned out to be 180 nM.

Molecule `CNC(=O)c1nc2c(NCC3CCNCC3)nc(-c3ccnc(Cl)c3)cn2c1C` [Compound 11, 6-(2-Chloro-pyridin-4-yl)-3-methyl-8-[(piperidin-4-ylmethyl)-amino]-imidazo[1,2-a]pyrazine-2-carboxylic acid methylamide] showed an IC50 of 65 nM.

`Cc1c(C(N)=O)nc2c(NCC3CCNCC3)nc(-c3ccnc(Cl)c3)cn12` [Compound 12, 6-(2-Chloro-pyridin-4-yl)-3-methyl-8-[(piperidin-4-ylmethyl)-amino]-imidazo[1,2-a]pyrazine-2-carboxylic acid amide] returned an IC50 of 253 nM.

Molecule `CNC(=O)c1nc2c(NCC3(F)CCNCC3)nc(-c3ccncc3)cn2c1C` [Compound 14, 8-[(4-Fluoro-piperidin-4-ylmethyl)-amino]-3-methyl-6-pyridin-4-yl-imidazo[1,2-a]pyrazine-2-carboxylic acid methylamide] came in with an IC50 of 78 nM.

The molecule `NC(=O)c1cn2cc(-c3ccncc3)nc(NCC3(F)CCNCC3)c2n1` [Compound 15, 8-[(4-Fluoro-piperidin-4-ylmethyl)-amino]-6-pyridin-4-yl-imidazo[1,2-a]pyrazine-2-carboxylic acid amide] yielded a half-inhibitory concentration (IC50) of 25.9 nM.

Molecule `Cc1c(C(N)=O)nc2c(NCC3(F)CCNCC3)nc(-c3ccncc3)cn12` [Compound 16, 8-[(4-Fluoro-piperidin-4-ylmethyl)-amino]-3-methyl-6-pyridin-4-yl-imidazo[1,2-a]pyrazine-2-carboxylic acid amide] came in with an IC50 of 96 nM. This IC50 lies about 3.7-fold higher than the previous one.

Consider `CNC(=O)c1nc2c(NCC3(C#N)CCNCC3)nc(-c3ccncc3)cn2c1C` [Compound 17, 8-[(4-Cyano-piperidin-4-ylmethyl)-amino]-3-methyl-6-pyridin-4-yl-imidazo[1,2-a]pyrazine-2-carboxylic acid methylamide], for which the IC50 is 18.2 nM.

As for `COCCNC(=O)c1nc2c(NCC3(C#N)CCNCC3)nc(-c3ccncc3)cn2c1C` [Compound 18, 8-[(4-Cyano-piperidin-4-ylmethyl)-amino]-3-methyl-6-pyridin-4-yl-imidazo[1,2-a]pyrazine-2-carboxylic acid (2-methoxy-ethyl)-amide], the midpoint of inhibition, the IC50, lay at 138 nM.

In turn, `Cc1c(C(N)=O)nc2c(NCC3(C#N)CCNCC3)nc(-c3ccncc3)cn12` [Compound 19, 8-[(4-Cyano-piperidin-4-ylmethyl)-amino]-3-methyl-6-pyridin-4-yl-imidazo[1,2-a]pyrazine-2-carboxylic acid amide] yielded an IC50 of 45.7 nM.

`CNC(=O)c1nc2c(NCC3(F)CCNCC3)nc(-c3ccnc(Cl)c3)cn2c1C` [Compound 20, 6-(2-Chloro-pyridin-4-yl)-8-[(4-fluoro-piperidin-4-ylmethyl)-amino]-3-methyl-imidazo[1,2-a]pyrazine-2-carboxylic acid methylamide] came in with an IC50 of 78.8 nM. Against the preceding molecule, the IC50 is about 1.7-fold higher.

In turn, `CNC(=O)c1nc2c(NCC3(C#N)CCNCC3)nc(-c3ccnc(Cl)c3)cn2c1C` [Compound 21, 6-(2-Chloro-pyridin-4-yl)-8-[(4-cyano-piperidin-4-ylmethyl)-amino]-3-methyl-imidazo[1,2-a]pyrazine-2-carboxylic acid methylamide] yielded an IC50 of 151 nM.

As to `Cc1c(C(N)=O)nc2c(NCC3(C#N)CCNCC3)nc(-c3ccnc(Cl)c3)cn12` [Compound 24, 6-(2-Chloro-pyridin-4-yl)-8-[(4-cyano-piperidin-4-ylmethyl)-amino]-3-methyl-imidazo[1,2-a]pyrazine-2-carboxylic acid amide], the IC50 amounted to 111 nM.

`Cc1c(C(N)=O)nc2c(NCC3(F)CCNCC3)nc(-c3ccnc(Cl)c3)cn12` [Compound 25, 6-(2-Chloro-pyridin-4-yl)-8-[(4-fluoro-piperidin-4-ylmethyl)-amino]-3-methyl-imidazo[1,2-a]pyrazine-2-carboxylic acid amide] had an IC50 of 157 nM.

In the case of `CNC(=O)c1cn2cc(-c3ccncc3F)nc(NCC3CCNCC3)c2n1` [Compound 28, 6-(3-Fluoro-pyridin-4-yl)-8-[(piperidin-4-ylmethyl)-amino]-imidazo[1,2-a]pyrazine-2-carboxylic acid methylamide], the IC50 amounted to 19.5 nM.

In the case of `N#CC1(CNc2nc(-c3ccncc3F)cn3cc(C(N)=O)nc23)CCNCC1` [Compound 29, 8-[(4-Cyano-piperidin-4-ylmethyl)-amino]-6-(3-fluoro-pyridin-4-yl)-imidazo[1,2-a]pyrazine-2-carboxylic acid amide], the IC50 was found to be 6.59 nM.

`NC(=O)c1cn2cc(-c3ccncc3Cl)nc(NCC3CCNCC3)c2n1` [Compound 30, 6-(3-Chloro-pyridin-4-yl)-8-[(piperidin-4-ylmethyl)-amino]-imidazo[1,2-a]pyrazine-2-carboxylic acid amide] displayed an IC50 of 187 nM. Against the preceding molecule, the IC50 is about 28-fold higher.

In the case of `CNC(=O)c1cn2cc(-c3ccncc3Cl)nc(NCC3CCNCC3)c2n1` [Compound 31, 6-(3-Chloro-pyridin-4-yl)-8-[(piperidin-4-ylmethyl)-amino]-imidazo[1,2-a]pyrazine-2-carboxylic acid methylamide], the IC50 worked out at 189 nM.

`CNC(=O)c1nc2c(NCC3CCNCC3)nc(-c3ccncc3F)cn2c1C` [Compound 35, 6-(3-Fluoro-pyridin-4-yl)-3-methyl-8-[(piperidin-4-ylmethyl)-amino]-imidazo[1,2-a]pyrazine-2-carboxylic acid methylamide] came in with an IC50 of 94.8 nM.

As for `NC(=O)c1cn2cc(-c3ccncc3)nc(N[C@H]3CC[C@@H](N)CC3)c2n1` [Compound 39, 8-(cis-4-Amino-cyclohexylamino)-6-pyridin-4-yl-imidazo[1,2-a]pyrazine-2-carboxylic acid amide], inhibition was half-maximal at 140 nM (IC50).

Consider `NC(=O)c1cn2cc(-c3ccnc(N)c3)nc(NCC3(F)CCNCC3)c2n1` [Compound 41, 6-(2-Amino-pyridin-4-yl)-8-[(4-fluoro-piperidin-4-ylmethyl)-amino]-imidazo[1,2-a]pyrazine-2-carboxylic acid amide], for which the midpoint of inhibition, the IC50, lay at 34.5 nM.

`NC(=O)c1cn2cc(-c3ccncc3)nc(NCC3(O)CCNCC3)c2n1` [Compound 44, 8-[(4-Hydroxy-piperidin-4-ylmethyl)-amino]-6-pyridin-4-yl-imidazo[1,2-a]pyrazine-2-carboxylic acid amide] returned an IC50 of 46.8 nM.

On to `NC(=O)c1cn2cc(-c3ccns3)nc(NCC3(F)CCNCC3)c2n1` [Compound 46, 8-[(4-Fluoro-piperidin-4-ylmethyl)-amino]-6-isothiazol-5-yl-imidazo[1,2-a]pyrazine-2-carboxylic acid amide], for which the IC50 worked out at 85.6 nM.

As usually defined, the IC50 is the midpoint of a concentration-inhibition curve.
